Reference: PMC11062899, “De novo development of small cyclic peptides that are orally bioavailable” (Nature Chemical Biology, 2023)
Where “and” joins values, the source holds several entries; their conditions need not be identical. Equal entries are not always repeated.

What was measured:
[1] = target: T1, porcine pepsin (Sus scrofa, UniProt P00791); test: Peptide stability in simulated gastric fluid (SGF); assay type: in vitro ADME
T1 construct: 0.32 g of porcine pepsin (Sigma-Aldrich, P7125) was dissolved under gentle agitation; purchased Sigma-Aldrich P7125
T1 sequence (P00791 60-385): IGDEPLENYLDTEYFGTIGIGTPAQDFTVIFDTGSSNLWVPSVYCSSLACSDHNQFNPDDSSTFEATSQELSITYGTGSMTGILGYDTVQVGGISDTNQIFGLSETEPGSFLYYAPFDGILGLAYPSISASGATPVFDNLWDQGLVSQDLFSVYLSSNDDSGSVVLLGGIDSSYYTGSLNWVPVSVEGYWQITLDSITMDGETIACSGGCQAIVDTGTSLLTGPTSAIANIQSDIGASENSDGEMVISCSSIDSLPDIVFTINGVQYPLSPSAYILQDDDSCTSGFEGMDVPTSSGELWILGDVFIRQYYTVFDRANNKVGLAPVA
Protocol: (§1) Simulated gastric and intestinal fluids were prepared according to the States Pharmacopeia specifications (Test Solutions, United States Pharmacopeia 35, NF 30, 2012). SGF: 0.2 g of sodium chloride was dissolved in 50 ml of water, and the pH was adjusted to 1.2 by addition of 0.7 ml of 10 M hydrochloric acid. Then, 0.32 g of porcine pepsin (Sigma-Aldrich, P7125) was dissolved under gentle agitation, and the volume was filled up to 100 ml with Milli-Q water. SIF: 0.68 g of monobasic potassium phosphate was dissolved in 25 ml of Milli-Q water, and the pH was adjusted to 6.8 by adding 7.7 ml of a 0.2 M sodium hydroxide solution. Next, 1 g of porcine pancreatin (Sigma-Aldrich, P3292) was added under gentle agitation, and the volume was adjusted to 100 ml with Milli-Q water to afford a fine suspension. To test the stability in simulated gastrointestinal fluids, 396 μl of SGF or SIF was pre-heated at 37 °C for 10 min, and 4 μl of a 1 mM peptide solution in DMSO was added. […] Supernatant was analyzed by LC–MS to measure the peptide concentrations at the different timepoints. Residual peptide was calculated by normalizing the concentrations measured at T1 to T0.

[2] = target: T2, rat α-thrombin (Rattus norvegicus, UniProt P18292); test: Protease inhibition, Ki for rat α-thrombin (fluorogenic substrate Z-Gly-Gly-Arg-AMC); assay type: biochemical; conditions: replicates R1-R3
T2 construct: rat α-thrombin (Molecular Innovations) were used at final concentrations of 2 nM and 3 nM; purchased Molecular Innovations
Method in brief: (§2)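 Ki derived through Cheng–Prusoff from IC50s (four-parameter logistic fit) against activity of peptide-free controls. Product fluorescence was read every 3 min over 30 min at 25 °C, substrate Z-Gly-Gly-Arg-AMC at 50 μM. Enzyme was 2 nM human or 3 nM rat α-thrombin, pH 7.4 buffer.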

[3] = test system: porcine pancreatin; test: Peptide stability in simulated intestinal fluid (SIF); assay type: in vitro ADME; conditions: after 8 h vs 0 h (TIC); average of R1-R3
Protocol: as §1

[4] = as above; assay type: in vitro ADME, porcine; conditions: simulated gi fluid; 8 h, 37 °C, pH 6.8; read-out: Proteolytic stability: SIF (8 h) % remaining
Protocol: as §1

[5] = Passive artificial membrane permeability (PAMPA)
[6] = Metabolic stability in rat liver microsomes (RLMs); conditions: rat, microsomes
[7] = target: human α-thrombin (Homo sapiens, UniProt P00734); test: Protease inhibition, Ki for human α-thrombin (fluorogenic substrate Z-Gly-Gly-Arg-AMC); assay type: biochemical; conditions: replicates R1-R3
Method in brief: as §2

[8] = peptide 1.33E+02 uM, slope of proteolytic substrate cleavage over time

SGF stability, Residual peptide Average ([1]; after 8 h vs 0 h (TIC), average of R1-R3): 99.15 | SGF stability, Residual peptide ([1]; after 8 h vs 0 h (TIC), single replicates R1-R3): 102.14 and 93.27 and 102.05 | remaining at 8 h ([1]; simulated gi fluid, 8 h, 37 °C, pH 1.2, read-out: Proteolytic stability: SGF (8 h) % remaining): 99 ± 5% | Rat alpha thrombin inhibition, slope normalized to DMSO [2, 8]: 4.6 and 7.6 and 2.5 | Rat alpha thrombin inhibition, slope normalized to DMSO ([2]; peptide 1.67E+01 uM): 7.9 and 9.3 and 7.8 | Rat alpha thrombin inhibition, slope normalized to DMSO ([2]; peptide 2.08E+00 uM): 26.1 and 28.9 and 26.4 | Rat alpha thrombin inhibition, slope normalized to DMSO ([2]; peptide 3.33E+01 uM): 4.7 and 8.8 and 5.5 | Rat alpha thrombin inhibition, slope normalized to DMSO ([2]; peptide 4.17E+00 uM): 21.7 and 23.0 and 20.8 | Rat alpha thrombin inhibition, slope normalized to DMSO ([2]; peptide 6.67E+01 uM): 5.5 and 8.4 and 4.7 | Rat alpha thrombin inhibition, slope normalized to DMSO ([2]; peptide 8.33E+00 uM): 11.6 and 14.0 and 11.0 | SIF stability, Residual peptide Average [3]: 95.62 | remaining at 8 h [4]: 96 ± 6% | PAMPA permeability: % permeability ([5]; 50 μM, 12–18 h, acceptor concentration relative to equilibrium): 0.35 ± 0.03% | Papp at 50 μM ([5]; PAMPA, pH 7.4): 0.0229 ×10⁻⁶ cm/s | Permeability% Average ([5]; PAMPA, average of R1-R3): 0.35% | Permeability% R1 ([5]; PAMPA, replicate R1, TIC of top well sample relative to sample at theoretical equilibrium): 0.32% | Permeability% R3 ([5]; PAMPA, replicate R3, TIC of top well sample relative to sample at theoretical equilibrium): 0.38% | microsomal CLint ([6]; CL (ul/min/mg protein) R1, RLM CL, replicate R1): 90.2 µL/min/mg | microsomal CLint ([6]; CL (ul/min/mg protein) R2, RLM CL, replicate R2): 68.8 µL/min/mg | microsomal CLint ([6]; CL (ul/min/mg protein) R3, RLM CL, replicate R3): 72.9 µL/min/mg | half-life ([6]; Half Life (min) R1, RLM metabolic stability, replicate R1, 0-60 min): 15.4 min | half-life ([6]; Half Life (min) R2, RLM metabolic stability, replicate R2, 0-60 min): 20.1 min | half-life ([6]; Half Life (min) R3, RLM metabolic stability, replicate R3, 0-60 min): 19 min | half-life ([6]; Metabolic stability: Half life T1/2 (min), RLMs, mean and SD, three measurements): 18.2 ± 2 min | microsomal CLint ([6]; Metabolic stability: RLM CL (ul/min/mg), RLMs, mean and SD, three measurements): 77 ± 9 µL/min/mg | microsomal CLint ([6]; Metabolic stability: RLM CL Average, summary table, average of R1-R3): 77.3 µL/min/mg | microsomal CLint ([6]; Metabolic stability: RLM CL R1, summary table, rounded, replicate R1): 90.2 µL/min/mg | microsomal CLint ([6]; Metabolic stability: RLM CL R2, summary table, rounded, replicate R2): 68.8 µL/min/mg | microsomal CLint ([6]; Metabolic stability: RLM CL R3, summary table, rounded, replicate R3): 73 µL/min/mg | Human alpha thrombin inhibition, slope normalized to DMSO ([7]; peptide 1.02E-03 uM): 102.9 and 99.8 and 96.6 | Human alpha thrombin inhibition, slope normalized to DMSO ([7]; peptide 1.04E+00 uM): 56.9 and 56.3 and 49.2 | Human alpha thrombin inhibition, slope normalized to DMSO ([7]; peptide 1.27E-04 uM): 90.5 and 95.3 and 95.8 | Human alpha thrombin inhibition, slope normalized to DMSO ([7]; peptide 1.30E-01 uM): 71.9 and 86.4 and 78.8 | Human alpha thrombin inhibition, slope normalized to DMSO [7, 8]: 6.4 and 9.7 and 4.3 | Human alpha thrombin inhibition, slope normalized to DMSO ([7]; peptide 1.63E-02 uM): 99.5 and 89.1 and 90.1 | Human alpha thrombin inhibition, slope normalized to DMSO ([7]; peptide 1.67E+01 uM): 16.0 and 14.1 and 9.4 | Human alpha thrombin inhibition, slope normalized to DMSO ([7]; peptide 2.03E-03 uM): 98.8 and 94.5 and 92.3 | Human alpha thrombin inhibition, slope normalized to DMSO ([7]; peptide 2.08E+00 uM): 52.9 and 44.1 and 36.2 | Human alpha thrombin inhibition, slope normalized to DMSO ([7]; peptide 2.54E-04 uM): 106.8 and 94.8 and 97.0 | Human alpha thrombin inhibition, slope normalized to DMSO ([7]; peptide 2.60E-01 uM): 78.1 and 77.3 and 67.5 | Human alpha thrombin inhibition, slope normalized to DMSO ([7]; peptide 3.18E-05 uM): 100.4 and 97.0 and 90.2 | Human alpha thrombin inhibition, slope normalized to DMSO ([7]; peptide 3.26E-02 uM): 100.0 and 89.9 and 87.8 | Human alpha thrombin inhibition, slope normalized to DMSO ([7]; peptide 3.33E+01 uM): 12.7 and 10.3 and 16.0 | Human alpha thrombin inhibition, slope normalized to DMSO ([7]; peptide 4.07E-03 uM): 92.6 and 96.1 and 91.8 | Human alpha thrombin inhibition, slope normalized to DMSO ([7]; peptide 4.17E+00 uM): 39.5 and 36.2 and 29.7 | Human alpha thrombin inhibition, slope normalized to DMSO ([7]; peptide 5.09E-04 uM): 101.4 and 93.9 and 96.1 | Human alpha thrombin inhibition, slope normalized to DMSO ([7]; peptide 5.21E-01 uM): 64.5 and 65.3 and 59.0 | Human alpha thrombin inhibition, slope normalized to DMSO ([7]; peptide 6.36E-05 uM): 103.2 and 97.0 and 93.0 | Human alpha thrombin inhibition, slope normalized to DMSO ([7]; peptide 6.51E-02 uM): 93.3 and 87.6 and 88.6 | Human alpha thrombin inhibition, slope normalized to DMSO ([7]; peptide 6.67E+01 uM): 9.5 and 8.1 and 4.7 | Human alpha thrombin inhibition, slope normalized to DMSO ([7]; peptide 8.14E-03 uM): 100.4 and 99.0 and 91.1 | Human alpha thrombin inhibition, slope normalized to DMSO ([7]; peptide 8.33E+00 uM): 24.1 and 22.7 and 13.9
Structure (SMILES): O=C1C[C@H]2CCCN2C(=O)[C@H](Cc2ccccn2)NC(=O)[C@@H](NC(=O)c2ccc(Cl)s2)CSCCS(=O)(=O)CCSCCN1 [compound 12]
